The source of these data is US20230339970A1, “CASEIN KINASE 1 DELTA MODULATORS” (priority 2020, published 2023).

For one assay, the target named is T1, human CSNK1D (Homo sapiens, UniProt P48730).
T1 construct: expressed in transfected cells
Put plainly: Whole Cell nBRET CSNK1D Binding Assay. Conditions: living CHO cells stably expressing human CSNK1D tagged with nanoluciferase; NanoBret tracer 130 nM; 2 hours at 37 C.

Assay [1] deals with T2, human recombinant GST cleaved CSNK1D (Homo sapiens, UniProt P48730).
T2 construct: GST (cleaved yes); purchased University of Dundee clone DU 19064
Put plainly: Purified Enzyme Assay (ADP-Glo CSNK1D Kinase Assay). Conditions: 2 nM CSNK1D; peptide substrate 150 μM; ATP 20 μM; 45 minutes at room temperature. Format: biochemical. Put shortly: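 GST-cleaved human recombinant CSNK1D phosphorylates peptide PLSRTL-pS-VASLPGL with ATP; compounds added in dose-response, 45 min at room temperature. ADP formed measured by ADP-Glo luminescence and converted to percent activity.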
For orientation: ADP-Glo first removes unused ATP, then detects ADP through luciferase.

Structures are written as SMILES.

T2 sequence (P48730 whole entry): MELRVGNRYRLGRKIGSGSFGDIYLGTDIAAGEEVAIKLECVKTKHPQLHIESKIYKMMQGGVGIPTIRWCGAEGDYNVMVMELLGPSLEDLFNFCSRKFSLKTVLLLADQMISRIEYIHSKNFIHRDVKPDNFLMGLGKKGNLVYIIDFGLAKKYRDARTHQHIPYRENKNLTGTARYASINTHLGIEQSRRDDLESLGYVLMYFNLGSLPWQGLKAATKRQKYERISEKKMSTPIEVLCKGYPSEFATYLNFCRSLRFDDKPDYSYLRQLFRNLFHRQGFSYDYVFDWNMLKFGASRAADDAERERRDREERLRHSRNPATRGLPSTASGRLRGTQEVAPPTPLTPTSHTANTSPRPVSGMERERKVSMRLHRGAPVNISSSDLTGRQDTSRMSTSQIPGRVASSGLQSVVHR
T1 sequence (P48730 whole entry): as above

The IC50 is the midpoint of a concentration-inhibition curve. Consider `Cc1cc(-c2c(-c3ccc(F)cn3)nn3c2OCC2(CC2)C3)c2c(Cl)n[nH]c2n1` [Example 464, 3′-(3-Chloro-6-methyl-1H-pyrazolo[3,4-b]pyridin-4-yl)-2′-(5-fluoropyridin-2-yl)-5′H,7′H-spiro[cyclopropane-1,6′-pyrazolo[5,1-b][1,3]oxazine]], for which the IC50 at human CSNK1D is 11 nM; in assay [1], 5 nM.

As for `O=C1OCCn2nc(-c3ccc(F)cn3)c(-c3ccnc4[nH]ncc34)c21` [Example 182, 2-(5-Fluoro-2-pyridyl)-3-(1H-pyrazolo[3,4-b]pyridin-4-yl)-6,7-dihydropyrazolo[5,1-c][1,4]oxazin-4-one], the 50% inhibitory concentration (IC50) on human CSNK1D was greater than 10000 nM; in assay [1], 241 nM.

Consider `Cc1nc(-c2c(-c3ccc(F)cc3)nn3c2OCC2(CC2)C3)c2cn[nH]c2n1` [Example 465, 2′-(4-Fluorophenyl)-3′-(6-methyl-1H-pyrazolo[3,4-d]pyrimidin-4-yl)-5′H,7′H-spiro[cyclopropane-1,6′-pyrazolo[5,1-b][1,3]oxazine]], for which the IC50 at human CSNK1D worked out at 35 nM; in assay [1], 3 nM.

For `Fc1ccc(-c2nn3c(c2-c2ccnc4[nH]ncc24)CO[C@@H](C2CC2)C3)nc1` (single isomer, unassigned) [Example 109, (*S)-6-Cyclopropyl-2-(5-fluoropyridin-2-yl)-3-(1H-pyrazolo[3,4-b]pyridin-4-yl)-6,7-dihydro-4H-pyrazolo[5,1-c][1,4]oxazine], the results for the IC50 (at human CSNK1D; in assay [1]) were 301 nM and 15 nM, respectively.

Regarding `Cc1cc(-c2c(-c3ccc(F)cc3)nn3c2CC2(C3)CC2(F)F)c2cn[nH]c2n1` (single isomer, unassigned) [Example 253, (*R)-1′.1′-Difluoro-2-(4-fluorophenyl)-3-(6-methyl-1H-pyrazolo[3,4-b]pyridin-4-yl)spiro[4,6-dihydropyrrolo[1,2-b]pyrazole-5,2′-cyclopropane]], the IC50 was found to be 279 nM on human CSNK1D and 21 nM in assay [1].

On to `CC1(C)Cn2nc(-c3cnco3)c(-c3ccnc4[nH]ncc34)c2CO1` [Example 126, 6,6-Dimethyl-2-(oxazol-5-yl)-3-(1H-pyrazolo[3,4-b]pyridin-4-yl)-6,7-dihydro-4H-pyrazolo[5,1-c][1,4]oxazine], for which the 50% inhibitory concentration (IC50) was 827 nM at human CSNK1D and 21 nM in assay [1].

Turning to `Fc1ccc(-c2nn3c(c2-c2ccnc4[nH]ncc24)C[C@H]2C[C@H]23)nc1` [Example 25, (4aR,5aR)-2-(5-Fluoropyridin-2-yl)-3-(1H-pyrazolo[3,4-b]pyridin-4-yl)-4,4a,5,5a-tetrahydrocyclopropa[4,5]pyrrolo[1,2-b]pyrazole], the IC50 turned out to be 672 nM at human CSNK1D and 49 nM in assay [1].

On to `Fc1ccc(-c2nn3c(c2-c2ccnc4[nH]ccc24)COCC3)nc1` [Example 1, 2-(5-Fluoro-2-pyridyl)-3-(1H-pyrrolo[2,3-b]pyridin-4-yl)-6,7-dihydro-4H-pyrazolo[5,1-c][1,4]oxazine], for which the IC50 at human CSNK1D was determined as 81 nM; in assay [1], 10 nM.

In the case of `COCC1(C)CCc2c(-c3cc(C)nc4[nH]ncc34)c(-c3ccc(F)cn3)nn2C1` (single isomer, unassigned) [Example 56, (*R)-4-(2-(S-Fluoropyridin-2-yl)-6-(methoxymethyl)-6-methyl-4,5,6,7-tetrahydropyrazolo[1,5-a]pyridin-3-yl)-6-methyl-1H-pyrazolo[3,4-b]pyridine], the half-maximal inhibitory concentration (IC50) was found to be 63 nM on human CSNK1D and 3 nM in assay [1].

In the case of `C[C@@H]1C[C@H](C)Oc2c(-c3ccnc4[nH]ncc34)c(-c3ccc(F)cn3)nn21` (single isomer, unassigned) [Example 202, (5*S,7*R)-2-(5-Fluoro-2-pyridyl)-5,7-dimethyl-3-(1H-pyrazolo[3,4-b]pyridin-4-yl)-6,7-dihydro-5H-pyrazolo[5,1-b][1,3]oxazine], the IC50 amounted to 198 nM at human CSNK1D and 10 nM in assay [1].

`Fc1ccc(-c2nn3c(c2-c2ccnc4[nH]ncc24)CO[C@H](C2CC2)C3)nc1` (single isomer, unassigned) [Example 108, (*R)-6-Cyclopropyl-2-(5-fluoropyridin-2-yl)-3-(1H-pyrazolo[3,4-b]pyridin-4-yl)-6,7-dihydro-4H-pyrazolo[5,1-c][1,4]oxazine]: the half-maximal inhibitory concentration (IC50) came to 681 nM on human CSNK1D and 41 nM in assay [1].

Take `Cc1cc(-c2c(-c3ccc(F)cn3)nn3c2C[C@H]2C[C@H]23)c2cn[nH]c2n1` [Example 27, (4aR,5aR)-2-(5-Fluoropyridin-2-yl)-3-(6-methyl-1H-pyrazolo[3,4-b]pyridin-4-yl)-4,4a,5,5a-tetrahydrocyclopropa[4,5]pyrrolo[1,2-b]pyrazole]: the results for the IC50 (at human CSNK1D; in assay [1]) were 434 nM and 41 nM, respectively.

As for `Cc1cn2nccc2cc1-c1c(-c2ccc(F)cn2)nn2c1COC(C)(C)C2` [Example 382, 2-(5-Fluoro-2-pyridyl)-6,6-dimethyl-3-(6-methylpyrazolo[1,5-a]pyridin-5-yl)-4,7-dihydropyrazolo[5,1-c][1,4]oxazine], the concentration for half-maximal inhibition (IC50) at human CSNK1D is greater than 10000 nM; in assay [1] it was 451 nM.

`Cc1cc(-c2c(-c3ccc(F)cn3)nn3c2CO[C@@H](C)C3)c2cn[nH]c2n1` (single isomer, unassigned) [Example 88, (*S)-2-(5-Fluoro-2-pyridyl)-6-methyl-3-(6-methyl-1H-pyrazolo[3,4-b]pyridin-4-yl)-6,7-dihydro-4H-pyrazolo[5,1-c][1,4]oxazine]: the figures for the concentration for half-maximal inhibition (IC50) (on human CSNK1D; in assay [1]) were 248 nM and 12 nM, respectively.

`Fc1ccc(-c2nn3c(c2-c2ccnc4[nH]ncc24)OCC2(C3)CC2(F)F)nc1` (single isomer, unassigned) [Example 478, (*S)-2,2-Difluoro-2′-(5-fluoropyridin-2-yl)-3′-1H-pyrazolo[3,4-b]pyridin-4-yl)-5′H,7′H-spiro[cyclopropane-1,6′-pyrazolo[5,1-b][1,3]oxazine]]: the IC50 at human CSNK1D came out at 4 nM; in assay [1], 1 nM.

Regarding `Cn1ncc2c(-c3c(-c4ccc(F)cn4)nn4c3COC(C)(C)C4)ccnc21` [Example 153, 2-(5-Fluoro-2-pyridyl)-6,6-dimethyl-3-(1-methylpyrazolo[3,4-b]pyridin-4-yl)-4,7-dihydropyrazolo[5,1-c][1,4]oxazine], the IC50 was determined as 3710 nM on human CSNK1D and 176 nM in assay [1].

For `Fc1ccc(-c2nn3c(c2-c2ccnc4[nH]nc(Cl)c24)C[C@@H]2C[C@@H]23)nc1` [Example 271, (4aS,5aS)-3-(3-Chloro-1H-pyrazolo[3,4-b]pyridin-4-yl)-2-(5-fluoropyridin-2-yl)-4,4a,5,5a-tetrahydrocyclopropa[4,5]pyrrolo[1,2-b]pyrazole], the concentration for half-maximal inhibition (IC50) at human CSNK1D was found to be 4 nM; in assay [1], 2 nM.

With `Cc1cc(-c2c(-c3ccc(F)cn3)nn3c2OCCC3)c2cn[nH]c2n1` [Example 187, 2-(5-Fluoropyridin-2-yl)-3-(6-methyl-1H-pyrazolo[3,4-b]pyridin-4-yl)-6,7-dihydro-5H-pyrazolo[5,1-b][1,3]oxazine], the IC50 at human CSNK1D was determined as 330 nM; in assay [1] it was 8 nM.

As to `Cc1nc2[nH]nc(C)c2c(-c2c(-c3ccc(F)cn3)nn3c2CC2(C3)CC2(F)F)c1F` (single isomer, unassigned) [Example 265, (*R)-1′.1′-Difluoro-3-(5-fluoro-3,6-dimethyl-1H-pyrazolo[3,4-b]pyridin-4-yl)-2-(5-fluoro-2-pyridyl)spiro[4,6-dihydropyrrolo[1,2-b]pyrazole-5,2′-cyclopropane]], the IC50 came out at 37 nM at human CSNK1D and 10 nM in assay [1].

As to `CC(=O)Nc1cc(-c2c(-c3ccc(F)cn3)nn3c2CC[C@H]2[C@@H]3C2(F)F)ccn1` (stereo in doubt) [Example 351, N-(4-((5a*S,6a*R)-6,6-Difluoro-2-(5-fluoropyridin-2-yl)-5,5a,6,6a-tetrahydro-4H-cyclopropa[e]pyrazolo[1,5-a]pyridin-3-yl)pyridin-2-yl)acetamide], the IC50 at human CSNK1D was found to be 20 nM; in assay [1] it was 2 nM.

Take `CCC(=O)Nc1cc(-c2c(-c3ccc(F)cn3)nn3c2OCC(C)C3)ccn1` (centres unmarked) [Example 442, N-(4-(2-(5-Fluoropyridin-2-yl)-6-methyl-6,7-dihydro-5H-pyrazolo[5,1-b][1,3]oxazin-3-yl)pyridin-2-yl)propionamide]: the half-inhibitory concentration (IC50) at human CSNK1D is 23 nM; in assay [1], 3 nM.

On to `CC1(C)COc2c(-c3ccnc4ccsc34)c(-c3ccc(F)cn3)nn2C1` [Example 214, 2-(5-Fluoropyridin-2-yl)-6,6-dimethyl-3-(thieno[3,2-b]pyridin-7-yl)-6,7-dihydro-5H-pyrazolo[5,1-b][1,3]oxazine], for which the figures for the IC50 (at human CSNK1D; in assay [1]) were 75 nM and 9 nM, respectively.

Regarding `CCC(=O)Nc1cc(-c2c(-c3ccc(F)cn3)nn3c2COC(C)(C)C3)ccn1` [Example 131, N-(4-(2-(5-Fluoropyridin-2-yl)-6,6-dimethyl-6,7-dihydro-4H-pyrazolo[5,1-c][1,4]oxazin-3-yl)pyridin-2-yl)propionamide], the results for the half-maximal inhibitory concentration (IC50) (at human CSNK1D; in assay [1]) were 16 nM and 3 nM, respectively.

Take `COc1cccc(-c2nn3c(c2-c2ccnc4[nH]ncc24)COC(C)(C)C3)n1` [Example 161, 2-(6-Methoxypyridin-2-yl)-6,6-dimethyl-3-(1H-pyrazolo[3,4-b]pyridin-4-yl)-6,7-dihydro-4H-pyrazolo[5,1-c][1,4]oxazine]: the IC50 at human CSNK1D turned out to be 1400 nM; in assay [1], 26 nM.

Turning to `Cc1cc(-c2c(-c3ccc(F)cc3)nn3c2[C@@H]2CC[C@H]3C2)c2cn[nH]c2n1` (single isomer, unassigned) [Example 364, (4*R,7*S)-2-(4-Fluorophenyl)-3-(6-methyl-1H-pyrazolo[3,4-b]pyridin-4-yl)-4,5,6,7-tetrahydro-4,7-methanopyrazolo[1,5-a]pyridine], the IC50 stood at 102 nM at human CSNK1D and 5 nM in assay [1].
